Test results as given in paper PMC6131557, “Selective Cytotoxicity of Dihydroorotate Dehydrogenase Inhibitors to Human Cancer Cells Under Hypoxia and Nutrient-Deprived Conditions” (Frontiers in Pharmacology, 2018).
Read-outs that look alike come from different tables or passages of the source.

Key:
A549 = assay: 39-cancer cell panel assay: A549; type: cell-based; conditions: Homo sapiens, Lu
MKN74 = assay: 39-cancer cell panel assay: MKN74; type: cell-based; conditions: Homo sapiens, MKN-74, St
OVCAR-5 = assay: 39-cancer cell panel assay: OVCAR-5; type: cell-based; conditions: Homo sapiens, Ov
Complex I = assay: NADH dehydrogenase (complex I) activity, bovine mitochondria; type: biochemical; conditions: at 5 μM
Description: Recombinant human DHODH was purified, crystallized, and assayed as previously described ([Inaoka et al., 2016]) without modification. Bovine mitochondrial fractions were prepared as previously described ([Kita et al., 1988]) and NADH dehydrogenase (complex I), succinate:quinone reductase (complex II), quinol oxidase (complexes III–IV), NADH-cytochrome c reductase (complexes I–III), and succinate-cytochrome c (complexes II–III) activities were assayed following an established method ([Takamiya et al., 1986]; [Miyadera et al., 2001]; [Matsumoto et al., 2008]; [Kido et al., 2010]; [Nihashi et al., 2017]).

SF-539 = assay: 39-cancer cell panel assay: SF-539; type: cell-based; conditions: Homo sapiens, CNS
OVCAR-3 = assay: 39-cancer cell panel assay: OVCAR-3; type: cell-based; conditions: Homo sapiens, Ov
[1] = Cytotoxicity assay (Cell Counting Kit-8 / WST-8) on DLD-1 cells; type: cell-based, human; conditions: human, DLD-1 colorectal adenocarcinoma cells; DLD-1, original medium, normal oxygen, 100 μM, 24 h
Description: (§1) For hypoxia and nutrient-deprived culture conditions, cells were incubated under 1% oxygen in glucose and glutamine-free DMEM (Gibco) without FBS.
(§2) DLD-1 or HDF cells were seeded at 2.5 × 10^4 cells/well on a 96-well plate with normal medium, and cultured overnight under normal culture condition. The cells were washed with PBS and the medium was replaced to either normal medium or glucose and glutamine-free DMEM without FBS. Test compounds or DMSO as a control were added to the wells. The cells in normal medium were cultured under normal culture conditions, while cells in nutrient-deprived medium were cultured under hypoxia condition. After 24 or 48 h incubation, the cells were washed with PBS, 100 μl of fresh normal medium, and 10 μl of Cell Counting Kit-8 solution (Donjindo, Japan) was added to each well. After 3 h incubation under normal culture condition, the absorbance was measured at 450 nm using SpectraMax M2e-TUY microplate reader (Molecular Devices). Cell viability of test wells was calculated based on absorbance of control wells containing DMSO according to manufacturer’s protocol.

DLD-1 cells = assay: as above; type: cell-based, human; conditions: for IC50: Homo sapiens
Description: as §1, §2

PC-3 = assay: 39-cancer cell panel assay: PC-3; type: cell-based; conditions: Homo sapiens, Pro
DU-145 = assay: 39-cancer cell panel assay: DU-145; type: cell-based; conditions: Homo sapiens, Pro
SF-295 = assay: 39-cancer cell panel assay: SF-295; type: cell-based; conditions: Homo sapiens, CNS
[2] = read-out: IC50 (μM) DLD-1 (24 h) Hypoxia nutrient (-), DLD-1, 24 h, hypoxia (1% oxygen), nutrient (-)
[3] = read-out: IC50 (μM) DLD-1 (24 h) Normoxia nutrient (+), DLD-1, 24 h, normoxia, nutrient (+)
[4] = DLD-1, 48 h, hypoxia (1% oxygen), nutrient (-), read-out: IC50 (μM) DLD-1 (48 h) Hypoxia nutrient (-)
[5] = DLD-1, 48 h, normoxia, nutrient (+), read-out: IC50 (μM) DLD-1 (48 h) Normoxia nutrient (+)

Compound | GI50 (A549) | GI50 (MKN74) | GI50 (OVCAR-5) | Inhibition (%) Complex I (Complex I) | GI50 (SF-539) | GI50 (OVCAR-3) | viability at 24 h, 100 µM [1] | IC50 (DLD-1 cells; [2]) | IC50 (DLD-1 cells; [3]) | IC50 (DLD-1 cells; [4]) | IC50 (DLD-1 cells; [5]) | GI50 (PC-3) | GI50 (DU-145) | GI50 (SF-295) | IC50 fold lower than 1 (DLD-1 cells; DLD-1, 24 h, hypoxia nutrient-deprived, versus compound 1) | selectivity ratio, microenvironment versus normal culture condition (DLD-1 cells; hypoxia and nutrient-deprived versus normal culture)
C/C(=C\Cc1c(O)c(Cl)c(C)c(C=O)c1O)CC/C=C(\C)[C@@H]1CC(=O)C(C)(C)O1 [Compound 1, ascofuranone] | 7.6 µM | 13 µM | 7.6 µM | 11 ± 5.8% | 1.7 µM | 8 µM | ~80% | 1.2 ± 0.79 µM | > 100 µM | 0.24 ± 0.057 µM | > 100 µM | 13 µM | 11 µM | 5.3 µM | – | –
CC(C)=CCC/C(C)=C/CC/C(C)=C/Cc1c(O)c(Cl)c(C)c(C=O)c1O [Compound 8] | 0.77 µM | 1.9 µM | 6.6 µM | 43 ± 1.8% | 0.24 µM | 1.9 µM | – | 0.066 ± 0.042 µM | 81 ± 24 µM | 0.024 ± 0.003 µM | 38 ± 3.3 µM | 1.2 µM | 0.26 µM | 1.3 µM | 20 fold | over 1000 fold
